According to US6818203B2, “Use of perfluoroalkyl-containing metal complexes as contrast media in MR-imaging for visualization of plaque, tumors and necroses” (Schering Aktiengesellschaft, priority 2000, dated 2004):

Test: organ distribution (including tumor and lymph node concentration) after intravenous administration in prostate cancer-bearing rats
Format: in vivo
Conditions: 200 μmol Gd/kg i.v.
Procedure: After intravenous administration of 200 μmol of total gadolinium/kg of body weight of a polar Gd-chelate with perfluorinated side chains (metal complex XIV) in rats (Cop-inbreeding with Dunning R3327 MAT-Lu prostate cancer i.m.-implanted 12 days earlier), the metal content in various organs, in tumors, as well as in the lymph nodes (pooled as mesenteric and peripheral lymph nodes) was determined 10 minutes, 1 hour and 24 hours after administration (MW±SD, n=3).

[1] = Mesentric lymph nodes, 10 min p.i.
[2] = Mesentric lymph nodes, 1 h p.i.
[3] = Mesentric lymph nodes, 24 h p.i.
[4] = Peripheral lymph nodes, 10 min p.i.
[5] = Peripheral lymph nodes, 1 h p.i.
[6] = Peripheral lymph nodes, 24 h p.i.
[7] = The remainder of the body, 10 min p.i.
[8] = The remainder of the body, 1 h p.i.
[9] = The remainder of the body, 24 h p.i.

% Dose (Balance (without blood values), 24 h p.i.): 95.07 ± 2.41 % Dose
% Dose (Blood (58 ml of blood/kg of body weight), 10 min p.i.): 26.73 ± 0.84 % Dose
% Dose (Blood (58 ml of blood/kg of body weight), 1 h p.i.): 16.13 ± 1.77 % Dose
% Dose (Blood (58 ml of blood/kg of body weight), 24 h p.i.): 0.61 ± 0.03 % Dose
Gd concentration (Blood, 10 min p.i.): 957 ± 38 µmol/L
Gd concentration (Blood, 1 h p.i.): 575 ± 56 µmol/L
Gd concentration (Blood, 24 h p.i.): 22 ± 1 µmol/L
% Dose (Brain, 10 min p.i.): 0.10 ± 0.03 % Dose
Gd concentration (Brain, 10 min p.i.): 38 ± 6 µmol/L
% Dose (Brain, 1 h p.i.): 0.06 ± 0.00 % Dose
Gd concentration (Brain, 1 h p.i.): 22 ± 2 µmol/L
% Dose (Brain, 24 h p.i.): 0.01 ± 0.01 % Dose
Gd concentration (Brain, 24 h p.i.): 4 ± 4 µmol/L
% Dose (Feces 0-24 h): 6.00 ± 4.91 % Dose
Gd concentration (Feces 0-24 h): 781 ± 611 µmol/L
% Dose (Femur, 10 min p.i.): 0.39 ± 0.02 % Dose
Gd concentration (Femur, 10 min p.i.): 115 ± 3 µmol/L
% Dose (Femur, 1 h p.i.): 0.28 ± 0.03 % Dose
Gd concentration (Femur, 1 h p.i.): 81 ± 10 µmol/L
% Dose (Femur, 24 h p.i.): 0.03 ± 0.00 % Dose
Gd concentration (Femur, 24 h p.i.): 9 ± 1 µmol/L
% Dose (Heart, 10 min p.i.): 0.32 ± 0.01 % Dose
Gd concentration (Heart, 10 min p.i.): 320 ± 8 µmol/L
% Dose (Heart, 1 h p.i.): 0.19 ± 0.01 % Dose
Gd concentration (Heart, 1 h p.i.): 190 ± 15 µmol/L
% Dose (Heart, 24 h p.i.): 0.02 ± 0.00 % Dose
Gd concentration (Heart, 24 h p.i.): 19 ± 0 µmol/L
% Dose (Intestine (empty), 10 min p.i.): 1.55 ± 0.09 % Dose
Gd concentration (Intestine (empty), 10 min p.i.): 242 ± 15 µmol/L
% Dose (Intestine (empty), 1 h p.i.): 1.16 ± 0.22 % Dose
Gd concentration (Intestine (empty), 1 h p.i.): 201 ± 32 µmol/L
% Dose (Intestine (empty), 24 h p.i.): 0.26 ± 0.04 % Dose
Gd concentration (Intestine (empty), 24 h p.i.): 36 ± 5 µmol/L
% Dose (Kidney, 10 min p.i.): 1.76 ± 0.14 % Dose
Gd concentration (Kidney, 10 min p.i.): 761 ± 60 µmol/L
% Dose (Kidney, 1 h p.i.): 2.84 ± 0.61 % Dose
Gd concentration (Kidney, 1 h p.i.): 1181 ± 232 µmol/L
% Dose (Kidney, 24 h p.i.): 0.81 ± 0.09 % Dose
Gd concentration (Kidney, 24 h p.i.): 338 ± 49 µmol/L
% Dose (Liver, 10 min p.i.): 2.62 ± 0.11 % Dose
Gd concentration (Liver, 10 min p.i.): 192 ± 12 µmol/L
% Dose (Liver, 1 h p.i.): 2.04 ± 0.15 % Dose
Gd concentration (Liver, 1 h p.i.): 147 ± 7 µmol/L
% Dose (Liver, 24 h p.i.): 0.96 ± 0.05 % Dose
Gd concentration (Liver, 24 h p.i.): 64 ± 4 µmol/L
% Dose (Lung, 10 min p.i.): 1.04 ± 0.02 % Dose
Gd concentration (Lung, 10 min p.i.): 603 ± 30 µmol/L
% Dose (Lung, 1 h p.i.): 0.80 ± 0.06 % Dose
Gd concentration (Lung, 1 h p.i.): 415 ± 39 µmol/L
% Dose (Lung, 24 h p.i.): 0.09 ± 0.01 % Dose
Gd concentration (Lung, 24 h p.i.): 44 ± 4 µmol/L
% Dose [1]: 0.08 ± 0.01 % Dose
Gd concentration [1]: 291 ± 29 µmol/L
% Dose [2]: 0.05 ± 0.01 % Dose
Gd concentration [2]: 179 ± 16 µmol/L
% Dose [3]: 0.02 ± 0.00 % Dose
Gd concentration [3]: 50 ± 6 µmol/L
% Dose (Muscle, 10 min p.i.): 0.06 ± 0.02 % Dose
Gd concentration (Muscle, 10 min p.i.): 93 ± 5 µmol/L
% Dose (Muscle, 1 h p.i.): 0.04 ± 0.00 % Dose
Gd concentration (Muscle, 1 h p.i.): 56 ± 3 µmol/L
% Dose (Muscle, 24 h p.i.): 0.00 ± 0.00 % Dose
Gd concentration (Muscle, 24 h p.i.): 8 ± 1 µmol/L
% Dose (Pancreas, 10 min p.i.): 0.35 ± 0.02 % Dose
Gd concentration (Pancreas, 10 min p.i.): 191 ± 14 µmol/L
% Dose (Pancreas, 1 h p.i.): 0.21 ± 0.05 % Dose
Gd concentration (Pancreas, 1 h p.i.): 139 ± 26 µmol/L
% Dose (Pancreas, 24 h p.i.): 0.03 ± 0.01 % Dose
Gd concentration (Pancreas, 24 h p.i.): 25 ± 1 µmol/L
% Dose [4]: 0.13 ± 0.00 % Dose
Gd concentration [4]: 284 ± 19 µmol/L
% Dose [5]: 0.14 ± 0.02 % Dose
Gd concentration [5]: 254 ± 14 µmol/L
% Dose [6]: 0.02 ± 0.00 % Dose
Gd concentration [6]: 51 ± 5 µmol/L
% Dose (Spleen, 10 min p.i.): 0.13 ± 0.01 % Dose
Gd concentration (Spleen, 10 min p.i.): 200 ± 13 µmol/L
% Dose (Spleen, 1 h p.i.): 0.08 ± 0.01 % Dose
Gd concentration (Spleen, 1 h p.i.): 123 ± 10 µmol/L
% Dose (Spleen, 24 h p.i.): 0.06 ± 0.00 % Dose
Gd concentration (Spleen, 24 h p.i.): 69 ± 5 µmol/L
% Dose (Stomach (empty), 10 min p.i.): 0.56 ± 0.07 % Dose
Gd concentration (Stomach (empty), 10 min p.i.): 244 ± 17 µmol/L
% Dose (Stomach (empty), 1 h p.i.): 0.40 ± 0.05 % Dose
Gd concentration (Stomach (empty), 1 h p.i.): 165 ± 21 µmol/L
% Dose (Stomach (empty), 24 h p.i.): 0.05 ± 0.00 % Dose
Gd concentration (Stomach (empty), 24 h p.i.): 19 ± 2 µmol/L
% Dose (Sum of the organs, 10 min p.i.): 80.06 ± 2.84 % Dose
% Dose (Sum of the organs, 1 h p.i.): 72.94 ± 5.83 % Dose
% Dose (Sum of the organs, 24 h p.i.): 9.21 ± 0.27 % Dose
% Dose [7]: 70.71 ± 2.74 % Dose
Gd concentration [7]: 419 ± 27 µmol/L
% Dose [8]: 64.27 ± 5.50 % Dose
Gd concentration [8]: 392 ± 25 µmol/L
% Dose [9]: 6.81 ± 0.16 % Dose
Gd concentration [9]: 42 ± 0 µmol/L
% Dose (Tumor, 10 min p.i.): 0.25 ± 0.05 % Dose
Gd concentration (Tumor, 10 min p.i.): 246 ± 25 µmol/L
% Dose (Tumor, 1 h p.i.): 0.37 ± 0.14 % Dose
Gd concentration (Tumor, 1 h p.i.): 266 ± 87 µmol/L
% Dose (Tumor, 24 h p.i.): 0.04 ± 0.01 % Dose
Gd concentration (Tumor, 24 h p.i.): 56 ± 4 µmol/L
% Dose (Urine 0-24 h): 79.86 ± 3.13 % Dose
Gd concentration (Urine 0-24 h): 619 ± 19 µmol/L
SMILES: CC(C(=O)NCC(=O)NCC(=O)N1CCN(C(=O)CNC(=O)CNC(=O)C(C)N2CCN(CC(=O)[O-])CCN(CC(=O)[O-])CCN(CC(=O)[O-])CC2)CCN(C(=O)COCCC(F)(F)C(F)(F)C(F)(F)C(F)(F)C(F)(F)C(F)(F)C(F)(F)C(F)(F)F)CCN(C(=O)CNC(=O)CNC(=O)C(C)N2CCN(CC(=O)[O-])CCN(CC(=O)[O-])CCN(CC(=O)[O-])CC2)CC1)N1CCN(CC(=O)[O-])CCN(CC(=O)[O-])CCN(CC(=O)[O-])CC1.[Gd+3].[Gd+3].[Gd+3] (centres unmarked) [metal complex XIV, 1,4,7-Tris{1,4,7-tris(N-(carboxylatomethyl)-10-[N-1-methyl-3,6-diaza-2,5,8-trioxooctane-1,8-diyl]-1,4,7,10-tetraazacyclododecane, Gdcomplex}-10-N-2H,2H,4H,4H,5H,5H-3-oxa-perfluoro-tridecanoyl]-1,4,7,10-tetraazacyclo-dodecane, Gd complex]
